Reference: patent US10350271B2, “Lipidated peptides for lowering blood glucose” (USTAV ORGANICKE CHEMIE A BIOCHEMIE AKADEMIE VED CR, V.V.I., priority 2014, dated 2019)
Where two headings read alike, the source gives them in different places. Square brackets hold non-standard residues; d marks the D form. Ends that are not written are not given here. Peptide text beside a SMILES is read from it. * marks the point of attachment. Phe(4-NO2) = N[C@@H](Cc1ccc([N+](=O)[O-])cc1)C(=O)O; Palmitoyl = CCCCCCCCCCCCCCCC(=O)*; Myristoyl = CCCCCCCCCCCCCC(=O)*; X1 = CONC(=O)[C@H](Cc1ccccc1)N*; NMeA = CN[C@@H](C)C(=O)O; Nle = CCCC[C@H](N)C(=O)O

Experiments:
[1] = molecular target: T1, human PrRP receptor GPR10 (Homo sapiens, UniProt P49683); assay: Competitive binding in CHO cells transfected with human GPR10 (human 125I-PrRP31); settings: for % of PrRP31, GPR10 human receptor transfected in CHO cells: affinity relative to PrRP31
T1 construct: host or cells: CHO cells
T1 sequence (P49683 1-370): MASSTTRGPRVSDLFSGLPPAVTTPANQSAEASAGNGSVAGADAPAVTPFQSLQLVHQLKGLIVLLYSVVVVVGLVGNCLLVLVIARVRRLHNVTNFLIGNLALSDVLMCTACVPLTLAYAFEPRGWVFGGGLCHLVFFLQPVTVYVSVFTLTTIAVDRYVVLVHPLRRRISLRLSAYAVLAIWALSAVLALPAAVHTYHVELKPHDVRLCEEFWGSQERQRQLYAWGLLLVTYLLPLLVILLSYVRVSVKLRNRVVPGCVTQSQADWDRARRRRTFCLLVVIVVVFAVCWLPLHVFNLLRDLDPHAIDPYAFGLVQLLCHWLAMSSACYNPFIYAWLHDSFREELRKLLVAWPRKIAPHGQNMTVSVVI
Procedure: (§1) Competitive binding experiments were performed according to Motulsky and Neubig (Motulsky, A., et al., “Analyzing radioligand binding data,” Curr Protoc Neurosci, Chapter 7, Unit 7.5, 2002). Binding experiments were conducted with rat pituitary cells, and with Chinese Hamster Ovary (CHO) cells as follows:
CHO cells transfected with human PrRP receptor GPR10 (Perkin Elmer, USA) were grown on 24-well plates coated with polyethyleneimine. The cells were grown to the optimal density of 40-80 thousand cells per well. The following agents were used for the experiment: binding buffer (25 mmol·l^−1 Tris, pH 7.4; 118 mmol·l^−1 NaCl, 10 mmol·l^−1 MgCl2, 10 mmol·l^−1 CaCl2, 5.5 mmol·l^−1 glucose, 0.5 mg/ml BSA), unlabeled analogs of PrRP (i.e. the analog being tested) at a final concentration between 10^−11 to 10^−4 mol·l^−1, and radiolabeled human ^125I-PrRP31 at a final concentration of 5×10^−11 mol·l^−1.
(§2) Plates were incubated for 60 minutes at room temperature. After incubation, the cells were solubilized in 0.1 mol/l solution of NaOH, and the radioactivity bound to the cells was counted using a γ-counter. The experiments were performed in duplicate, and repeated at least three times.
(§3) Graph Pad Prism Software (San Diego, Calif., USA) was used for evaluating the competitive binding experiments. Nonlinear regression was performed using a onsite binding model.

rat PrRP receptor = molecular target: T2, rat PrRP receptor (Rattus norvegicus, UniProt Q64121); assay: Competitive binding in RC-4B/C rat pituitary cells (125I-rat PrRP31); settings: for Ki: RC-4B/C cells, displacement of 125I-rat PrRP31, read-out: Ki, RC-4B/C rat pituitary cells ^25I-rat PrRP31; for % of PrRP31, RC-4B/C rat pituitary cells: affinity relative to PrRP31
T2 construct: host or cells: RC-4B/C rat pituitary cell line
T2 sequence (Q64121 1-370): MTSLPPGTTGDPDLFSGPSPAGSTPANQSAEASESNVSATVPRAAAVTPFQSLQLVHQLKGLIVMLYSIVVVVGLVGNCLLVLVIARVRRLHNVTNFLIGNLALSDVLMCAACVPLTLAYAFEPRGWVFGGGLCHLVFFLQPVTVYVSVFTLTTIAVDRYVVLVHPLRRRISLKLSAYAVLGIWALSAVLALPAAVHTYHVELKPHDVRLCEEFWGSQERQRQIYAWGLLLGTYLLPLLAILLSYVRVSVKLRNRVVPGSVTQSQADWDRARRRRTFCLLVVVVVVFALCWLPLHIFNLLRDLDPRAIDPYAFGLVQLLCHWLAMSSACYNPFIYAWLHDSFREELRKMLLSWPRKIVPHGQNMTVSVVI
Procedure: as §1
The rat pituitary cell line RC-4B/C (ATCC, Manassas, USA) was grown on 24-well plates which had their bottom coated with polyethyleneimine. The cells were grown to the optimal density of 300-450 thousand cells per well. The following agents were used for the experiment: binding buffer (20 mmol·l^−1 HEPES, Ph 7.4; 118 mmol·l^−1 NaCl, 4.7 mmol·l^−1 KCl, 5 mmol·l^−1 MgCl2, 5.5 mmol·l^−1 glucose, 1 mg/ml BSA, 0.1 BPTI), unlabeled analogs of PrRP (i.e. the analog being tested) at a final concentration between 10^−11 to 10^−4 mol·l^−1, and rat ^125I-PrRP31 (labeled with radioactive Iodine-125) at a final concentration of […] (Maixnerová et al., 2011).
as §2, §3

[2] = CHO cells, human 125I-PrRP31, read-out: Ki, GPR10 human receptor transfected in CHO cells

Compound | Ki [1, 2] [µM] | % of PrRP31, GPR10 human receptor transfected in CHO cells [1] [%] | Ki (rat PrRP receptor) [µM] | % of PrRP31, RC-4B/C rat pituitary cells (rat PrRP receptor) [%] | Ki [1] [µM]
CCCCCCCCCCCCCCCC(=O)NCCCC[C@H](NC(=O)[C@@H]1CCCN1C(=O)[C@H](CC(N)=O)NC(=O)[C@@H](NC(=O)[C@H](CC(=O)O)NC(=O)[C@@H]1CCCN1C(=O)[C@@H](N)[C@@H](C)O)[C@@H](C)CC)C(=O)N[C@@H](Cc1c[nH]c2ccccc12)C(=O)N[C@@H](Cc1ccc(O)cc1)C(=O)N[C@@H](C)C(=O)N[C@@H](CO)C(=O)N[C@@H](CCCNC(=N)N)C(=O)NCC(=O)N[C@H](C(=O)N[C@@H](CCCNC(=N)N)C(=O)N1CCC[C@H]1C(=O)N[C@H](C(=O)NCC(=O)N[C@@H](CCCNC(=N)N)C(=O)N[C@@H](Cc1ccccc1)C(N)=O)C(C)C)[C@@H](C)CC [Analog 50] (H-TPDINPK(Palmitoyl)WYASRGIRPVGRF-NH2) | 0.00564 ± 0.00035 | 69 |  |  | 
CCCCCCCCCCCCCC(=O)N[C@@H](CO)C(=O)N[C@@H](CCCNC(=N)N)C(=O)N[C@@H](C)C(=O)N[C@@H](Cc1c[nH]cn1)C(=O)N[C@@H](CCC(N)=O)C(=O)N[C@@H](Cc1c[nH]cn1)C(=O)N[C@@H](CO)C(=O)N[C@@H](CCCC)C(=O)N[C@@H](CCC(=O)O)C(=O)N[C@H](C(=O)N[C@@H](CCCNC(=N)N)C(=O)N[C@H](C(=O)N1CCC[C@H]1C(=O)N[C@@H](CC(=O)O)C(=O)N[C@H](C(=O)N[C@@H](CC(N)=O)C(=O)N1CCC[C@H]1C(=O)N[C@@H](C)C(=O)N[C@@H](Cc1c[nH]c2ccccc12)C(=O)N[C@@H](Cc1ccc(O)cc1)C(=O)N[C@H](C(=O)NCC(=O)N[C@@H](CCCNC(=N)N)C(=O)NCC(=O)N[C@H](C(=O)N[C@@H](CCCNC(=N)N)C(=O)N1CCC[C@H]1C(=O)N[C@H](C(=O)NCC(=O)N[C@@H](CCCNC(=N)N)C(=O)N[C@@H](Cc1ccc([N+](=O)[O-])cc1)C(N)=O)C(C)C)[C@@H](C)CC)[C@@H](C)O)[C@@H](C)CC)[C@@H](C)O)[C@@H](C)O [Analog 17] (Myristoyl-SRAHQHS[Nle]ETRTPDINPAWYTGRGIRPVGR[Phe(4-NO2)]-NH2) | 0.00159 ± 0.00105 | 245 | 0.00197 ± 0.00126 | 250 | 
CCCC[C@H](NC(=O)[C@H](CO)NC(=O)[C@H](Cc1c[nH]cn1)NC(=O)[C@H](CCC(N)=O)NC(=O)[C@H](Cc1c[nH]cn1)NC(=O)[C@H](C)NC(=O)[C@H](CCCNC(=N)N)NC(=O)[C@@H](N)CO)C(=O)N[C@@H](CCC(=O)O)C(=O)N[C@H](C(=O)N[C@@H](CCCNC(=N)N)C(=O)N[C@H](C(=O)N1CCC[C@H]1C(=O)N[C@@H](CC(=O)O)C(=O)N[C@H](C(=O)N[C@@H](CC(N)=O)C(=O)N1CCC[C@H]1C(=O)N[C@@H](C)C(=O)N[C@@H](Cc1c[nH]c2ccccc12)C(=O)N[C@@H](Cc1ccc(O)cc1)C(=O)N[C@H](C(=O)NCC(=O)N[C@@H](CCCNC(=N)N)C(=O)NCC(=O)N[C@H](C(=O)N[C@@H](CCCNC(=N)N)C(=O)N1CCC[C@H]1C(=O)N[C@H](C(=O)NCC(=O)N[C@@H](CCCNC(=N)N)C(=O)N[C@@H](Cc1ccc([N+](=O)[O-])cc1)C(N)=O)C(C)C)[C@@H](C)CC)[C@@H](C)O)[C@@H](C)CC)[C@@H](C)O)[C@@H](C)O [Analog 16] (H-SRAHQHS[Nle]ETRTPDINPAWYTGRGIRPVGR[Phe(4-NO2)]-NH2; N-terminus assumed) | 0.0048 ± 0.00088 | 81 | 0.0199 ± 0.0059 | 2.5 | 
CCCCCCCCCCCCCCCC(=O)N[C@@H](CO)C(=O)N[C@@H](CCCNC(=N)N)C(=O)N[C@H](C(=O)N[C@@H](Cc1c[nH]cn1)C(=O)N[C@@H](CCCNC(=N)N)C(=O)N[C@@H](Cc1c[nH]cn1)C(=O)N[C@@H](CO)C(=O)N[C@@H](CCSC)C(=O)N[C@@H](CCC(=O)O)C(=O)N[C@H](C(=O)N[C@@H](CCCNC(=N)N)C(=O)N[C@H](C(=O)N1CCC[C@H]1C(=O)N[C@@H](CC(=O)O)C(=O)N[C@H](C(=O)N[C@@H](CC(N)=O)C(=O)N1CCC[C@H]1C(=O)N[C@@H](C)C(=O)N[C@@H](Cc1c[nH]c2ccccc12)C(=O)N[C@@H](Cc1ccc(O)cc1)C(=O)N[C@@H](C)C(=O)N[C@@H](CO)C(=O)N[C@@H](CCCNC(=N)N)C(=O)NCC(=O)N[C@H](C(=O)N[C@@H](CCCNC(=N)N)C(=O)N1CCC[C@H]1C(=O)N[C@H](C(=O)NCC(=O)N[C@@H](CCCNC(=N)N)C(=O)N[C@@H](Cc1ccccc1)C(=O)NOC)C(C)C)[C@@H](C)CC)[C@@H](C)CC)[C@@H](C)O)[C@@H](C)CC)[C@@H](C)O [Analog 45] (Palmitoyl-SRTHRHSMEIRTPDINPAWYASRGIRPVGR-X1) |  | 92 |  |  | 
CCCCCCCCCCCCCCCC(=O)NCCCC[C@H](NC(=O)[C@@H](NC(=O)[C@H](CC(=O)O)NC(=O)[C@@H]1CCCN1C(=O)[C@@H](N)[C@@H](C)O)[C@@H](C)CC)C(=O)N1CCC[C@H]1C(=O)N[C@@H](C)C(=O)N[C@@H](Cc1c[nH]c2ccccc12)C(=O)N[C@@H](Cc1ccc(O)cc1)C(=O)N[C@@H](C)C(=O)N[C@@H](CO)C(=O)N[C@@H](CCCNC(=N)N)C(=O)NCC(=O)N[C@H](C(=O)N[C@@H](CCCNC(=N)N)C(=O)N1CCC[C@H]1C(=O)N[C@H](C(=O)NCC(=O)N[C@@H](CCCNC(=N)N)C(=O)N[C@@H](Cc1ccccc1)C(N)=O)C(C)C)[C@@H](C)CC [Analog 49] (H-TPDIK(Palmitoyl)PAWYASRGIRPVGRF-NH2) | 0.00434 ± 0.00045 | 90 |  |  | 
CC[C@H](C)[C@H](NC(=O)CNC(=O)[C@H](CCCNC(=N)N)NC(=O)[C@H](CO)NC(=O)[C@H](C)N(C)C(=O)[C@H](Cc1ccc(O)cc1)NC(=O)[C@H](Cc1c[nH]c2ccccc12)NC(=O)[C@H](C)NC(=O)[C@@H]1CCCN1C(=O)[C@H](CC(N)=O)NC(=O)[C@@H](NC(=O)[C@H](CC(=O)O)NC(=O)[C@@H]1CCCN1C(=O)[C@@H](N)[C@@H](C)O)[C@@H](C)CC)C(=O)N[C@@H](CCCNC(=N)N)C(=O)N1CCC[C@H]1C(=O)N[C@H](C(=O)NCC(=O)N[C@@H](CCCNC(=N)N)C(=O)N[C@@H](Cc1ccccc1)C(N)=O)C(C)C [Analog 29] (H-TPDINPAWY[NMeA]SRGIRPVGRF-NH2) |  | 45 |  | 10 | 
CCCC[C@H](NC(=O)CNC(=O)[C@H](CCCNC(=N)N)NC(=O)[C@@H]1CCCN1C(=O)[C@H](Cc1ccc(O)cc1)NC(=O)[C@H](Cc1c[nH]c2ccccc12)NC(=O)[C@H](Cc1c[nH]cn1)NC(=O)[C@@H](NC(=O)[C@H](CC(=O)O)NC(=O)[C@H](C)NC(=O)[C@@H]1CCCN1C(=O)[C@H](CCCNC(=N)N)NC(=O)[C@H](CCC(N)=O)NC(=O)[C@H](Cc1c[nH]cn1)NC(=O)[C@@H](N)CO)[C@@H](C)O)C(=O)N[C@@H](Cc1ccccc1)C(=O)N1CCC[C@H]1C(=O)N[C@H](C(=O)N[C@H](C(=O)NCC(=O)N[C@@H](CCCNC(=N)N)C(=O)N[C@H](C(=O)N[C@H](C(=O)N[C@@H](C)C(=O)N[C@@H](CCCNC(=N)N)C(=O)N[C@@H](CC(N)=O)C(=O)NCC(=O)N[C@@H](CCC(=O)O)C(=O)N[C@H](C(=O)N[C@@H](CO)C(=O)N[C@@H](CCCNC(=N)N)C(=O)O)C(C)C)[C@@H](C)O)[C@@H](C)CC)[C@@H](C)CC)[C@@H](C)O [Analog 19] (H-SHQRPADTHWYPRG[Nle]FPTIGRITARNGEVSR-OH; N-terminus and C-terminus assumed) |  |  | 1320 ± 1260 | 0.00004 | 
SRAHQHSMETRTPDINPAWYTGRGIRPVGRF-NH2 [Rat PrRP31, reference compound] |  |  |  |  | 0.00389 ± 0.00112
